From ChEMBL document CHEMBL2413063, “Neuroactive diol and acyloin metabolites from cone snail-associated bacteria” (Bioorg Med Chem Lett, 2013)
Each block holds one compound with its values, some of them ahead of it. Active and inactive are the calls of the source. The rule behind the calls is not given here.

Key:
DRG neuron [1] = test: Neuronal activity in mouse DRG neurons assessed as amplification of KCl pulse-induced intracellular calcium transient at 90 uM by fluorescence microscopic analysis; type: functional, cell-based
[2] = target: Sodium-dependent dopamine transporter (Homo sapiens) (UniProt Q01959); test: Binding affinity to dopamine transporter (unknown origin) at 10 uM by ligand displacement assay
[3] = target: Sodium-dependent serotonin transporter (Homo sapiens) (UniProt P31645); test: Binding affinity to serotonin transporter (unknown origin) at 10 uM by ligand displacement assay
[4] = target: Sodium-dependent noradrenaline transporter (Homo sapiens, UniProt P23975); test: Binding affinity to human norepinephrine transporter by ligand displacement assay
DRG neuron [5] = test: Neuronal activity in mouse DRG neurons assessed as amplification of KCl pulse-induced intracellular calcium transient at 73 uM by fluorescence microscopic analysis; type: functional, cell-based

Sequence of Sodium-dependent noradrenaline transporter (P23975 whole entry): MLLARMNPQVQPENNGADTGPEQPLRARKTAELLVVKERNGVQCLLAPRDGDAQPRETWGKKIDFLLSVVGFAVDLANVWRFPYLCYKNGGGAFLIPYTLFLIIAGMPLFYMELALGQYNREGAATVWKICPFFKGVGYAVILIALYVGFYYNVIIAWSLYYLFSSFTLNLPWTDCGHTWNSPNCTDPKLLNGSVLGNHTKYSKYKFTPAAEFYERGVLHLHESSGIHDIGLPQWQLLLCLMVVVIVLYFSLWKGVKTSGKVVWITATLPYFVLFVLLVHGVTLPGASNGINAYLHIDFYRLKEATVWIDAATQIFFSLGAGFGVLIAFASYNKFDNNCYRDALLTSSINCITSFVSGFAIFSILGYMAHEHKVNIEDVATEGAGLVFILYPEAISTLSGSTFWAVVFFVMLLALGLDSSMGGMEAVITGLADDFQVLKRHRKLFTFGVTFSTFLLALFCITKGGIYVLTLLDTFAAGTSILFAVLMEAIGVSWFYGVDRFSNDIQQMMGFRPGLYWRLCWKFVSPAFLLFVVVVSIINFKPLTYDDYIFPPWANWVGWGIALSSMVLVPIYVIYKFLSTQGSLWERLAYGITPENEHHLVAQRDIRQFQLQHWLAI
Sequence of Sodium-dependent serotonin transporter (Homo sapiens) (P31645 whole entry, looked up): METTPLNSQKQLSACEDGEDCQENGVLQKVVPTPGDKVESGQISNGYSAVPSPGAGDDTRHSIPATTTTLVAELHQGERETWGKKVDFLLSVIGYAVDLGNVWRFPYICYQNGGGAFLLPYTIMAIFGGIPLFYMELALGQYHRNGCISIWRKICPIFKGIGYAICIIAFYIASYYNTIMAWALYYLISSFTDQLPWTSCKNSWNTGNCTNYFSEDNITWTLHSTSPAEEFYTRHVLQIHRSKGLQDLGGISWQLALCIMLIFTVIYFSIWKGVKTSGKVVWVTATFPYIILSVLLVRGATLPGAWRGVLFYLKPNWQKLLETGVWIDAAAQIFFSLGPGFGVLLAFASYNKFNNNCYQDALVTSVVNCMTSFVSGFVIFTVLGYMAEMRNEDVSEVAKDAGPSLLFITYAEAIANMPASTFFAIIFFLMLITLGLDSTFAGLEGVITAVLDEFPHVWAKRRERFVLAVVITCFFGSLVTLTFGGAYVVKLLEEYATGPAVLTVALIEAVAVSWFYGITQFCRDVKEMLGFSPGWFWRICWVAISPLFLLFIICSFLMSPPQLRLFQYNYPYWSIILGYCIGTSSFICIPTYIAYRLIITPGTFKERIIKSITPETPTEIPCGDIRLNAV
Sequence of Sodium-dependent dopamine transporter (Homo sapiens) (Q01959 whole entry): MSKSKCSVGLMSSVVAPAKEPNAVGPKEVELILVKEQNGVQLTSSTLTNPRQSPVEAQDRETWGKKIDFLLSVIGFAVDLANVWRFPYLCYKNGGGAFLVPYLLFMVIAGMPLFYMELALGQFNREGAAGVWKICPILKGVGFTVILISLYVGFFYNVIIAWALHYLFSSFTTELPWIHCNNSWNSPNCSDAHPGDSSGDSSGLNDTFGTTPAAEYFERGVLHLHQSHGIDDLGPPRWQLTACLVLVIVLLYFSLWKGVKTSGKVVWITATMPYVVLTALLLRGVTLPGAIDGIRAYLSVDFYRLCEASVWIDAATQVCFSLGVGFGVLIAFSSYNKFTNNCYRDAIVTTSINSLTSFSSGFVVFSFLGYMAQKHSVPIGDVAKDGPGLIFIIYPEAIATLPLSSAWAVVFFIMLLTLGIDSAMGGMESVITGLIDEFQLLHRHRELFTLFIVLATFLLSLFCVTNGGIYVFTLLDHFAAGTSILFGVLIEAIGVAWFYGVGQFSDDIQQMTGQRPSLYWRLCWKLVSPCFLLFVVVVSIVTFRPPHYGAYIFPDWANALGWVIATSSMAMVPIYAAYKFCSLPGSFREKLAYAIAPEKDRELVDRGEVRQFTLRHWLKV

SMILES: CC(C)CC(O)C(=O)Cc1ccc(O)cc1 (stereo unspecified)
- Activity (DRG neuron [1]): inactive

SMILES: CC(C)CC(=O)C(O)Cc1ccc(O)cc1 (stereo unspecified)
- Activity (DRG neuron [1]): inactive

- inhibition [2]: inactive
- inhibition [3]: inactive
- Ki [4]: 867 nM
SMILES: O=C(Cc1c[nH]c2ccccc12)C(O)Cc1ccc(O)cc1 (stereo unspecified)

SMILES: O=C(Cc1ccc(O)cc1)C(O)Cc1ccc(O)cc1 (stereo unspecified)
- Activity (DRG neuron [5]): Active
